According to doi:10.1101/2024.12.03.626577v1 (biorxiv, 2024):
Like-named read-outs stand apart in the source and are kept apart here.

How the values were obtained:
[1] = biological target: T1, TRIM21^PRY-SPRY (287-465aa) (Homo sapiens, UniProt P19474); test: SPR; assay type: binding
[2] = system: PANC-1; test: cells; conditions: Homo sapiens, PANC-1, 72 h, read-out: PANC-1 IC50 (µM)
[3] = biological target: T1, TRIM21^PRY-SPRY (287-465aa); test: SPR; assay type: binding; remark: listed apart in the source

T1 sequence (P19474 287-465): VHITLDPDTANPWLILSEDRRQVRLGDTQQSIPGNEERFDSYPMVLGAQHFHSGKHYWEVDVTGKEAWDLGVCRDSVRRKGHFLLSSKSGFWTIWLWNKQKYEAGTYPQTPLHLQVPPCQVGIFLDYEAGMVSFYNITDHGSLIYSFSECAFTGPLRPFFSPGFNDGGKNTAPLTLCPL

`CCc1ccccc1CN(C)C(=O)c1ccc(-c2ccccc2SC)cc1S(C)(=O)=O` [1e, Compound 1e] showed a Kd [1] of 581 nM.
With `CSc1ccccc1-c1ccc(C(=O)N(C)Cc2cc[nH]c2)c(S(C)(=O)=O)c1` [1c, Compound 1c] the Kd [1] was 17 nM.
For `CSc1ccccc1-c1ccc(C(=O)N(C)Cc2ccon2)c(S(C)(=O)=O)c1` [1d, Compound 1d], the Kd [1] was 171 nM.
In the case of `CSc1ccccc1-c1ccc(C(=O)N(C)Cc2cc[nH]c(=O)c2)c(S(C)(=O)=O)c1` [1g, Compound 1g], the Kd [1] is reported as 11 nM.
For `COc1cnccc1-c1ccc(C(=O)N(C)CC2CCCCC2)c(S(C)(=O)=O)c1` [2d], the IC50 [2] was 0.791 µM.
With `CSc1ccccc1-c1ccc(C(=O)N(C)CC2(F)CCCCC2)c(S(C)(=O)=O)c1` [compound 1, Compound 1] the Kd [3] was 193 nM.
With `CN(CC1CCCCC1)C(=O)c1ccc(-c2ccccc2F)cc1S(C)(=O)=O` [2b, Compound 2b] the Kd [1] was 2150 nM and the IC50 [2] was 5.14 µM.
`CSc1ccccc1-c1ccc(C(=O)N(C)CC2CCOC2)c(S(C)(=O)=O)c1` (centres unmarked) [1f, Compound 1f] showed a Kd [1] of 350 nM.
`Cc1ccccc1-c1ccc(C(=O)N(C)CC2CCCCC2)c(S(C)(=O)=O)c1` [2c, Compound 2c] showed a Kd [1] of 610 nM.
`Cc1ccccc1-c1ccc(C(=O)N(C)CC2CCCCC2)c(S(C)(=O)=O)c1` [2c] was tested, and the IC50 [2] was 1.62 µM.
`CSc1ccccc1-c1ccc(C(=O)N(C)CC2CCCCC2(F)F)c(S(C)(=O)=O)c1` (centres unmarked) [2a, Compound 2a] was tested, and the Kd [1] was 234 nM and the IC50 [2] was 0.329 µM.
In the case of `CSc1ccccc1-c1ccc(C(=O)N(C)CC2CCOCC2)c(S(C)(=O)=O)c1` [1b, Compound 1b], the Kd [1] is reported as 29 nM.
`CSc1cc(F)ccc1-c1ccc(C(=O)N(C)CC2CCCCC2)c(S(C)(=O)=O)c1` [2e] was tested, and the IC50 [2] was 0.094 µM.
`COc1cnccc1-c1ccc(C(=O)N(C)CC2CCCCC2)c(S(C)(=O)=O)c1` [2d, Compound 2d] was tested, and the Kd [1] was 1570 nM.
With `CSc1ccccc1-c1ccc(C(=O)N(C)CC2CCCCC2)c(S(C)(=O)=O)c1` [1a, Compound 1a] the Kd [1] was 123 nM.
